The values that follow come from patent US20230063457A1, “DNA-PK INHIBITING COMPOUNDS” (Provincial Health Services Authority, priority 2019, published 2023).

For one experiment, the target named is T1, Phospho-DNA-PK in FaDu Cells (Homo sapiens, UniProt P78527).
T1 construct: host or cells: FaDu
Kind of experiment: Effect of compounds on phospho-DNA-PK in FaDu cells (MesoScale sandwich immunoassay). It is filed as cell-based. The note with it: 1 hour pre-incubation, 1 μg/ml Neocarzinostatin 2 hours, averaged values, read-out: MSD FaDu IC50. The method, then: Effect of Compounds on Phospho-DNA-PK in FaDu Cells
All compounds tested were dissolved in DMSO and further dilutions were made in culture medium. Final DMSO concentration was 0.3% (v/v). The human FaDu cells (ATCC) were cultured in MEM medium supplemented with Glutamax and 10% fetal calf serum (PAA). Cells were routinely maintained at densities of 0.2×10^6 cells per ml at 37° C. in a humidified 5% CO2, 95% air atmosphere. Cells were passaged twice a week, splitting back to obtain the low density. Cells were seeded in 96 well plates (Corning 3904) at 1×10^6 cells per ml media in a volume of 50 μl per well. Seeded cells were incubated at 37° C. in a humidified 5% CO2, 95% air atmosphere for 24 hours. Compounds were added (25 μl) to the cells and pre-incubated for 1 hour. 1 μg/ml DNA-damaging agent Neocarzinostatin (NCS) was added (25 μl) to a final volume of 100 μl and incubated for 2 hours at 37° C. in a humidified 5% CO2, 95% air atmosphere. After this period of time plates were removed from the incubator and the 100 μl dilutions were removed from the wells gently, prior to the addition of 75 μl cold RIPA lysis buffer with protease and phosphatase inhibitors to achieve the cells lysis, followed by shaking on a plate shaker at 4° C. for 30 minutes. At the end of this incubation, lysate was assessed for phospho-DNA-PK levels by sandwich immune-assay carried out in anti-mouse antibody coated MesoScale plates. […] Signal obtained in the wells containing blank samples was subtracted from all other wells and IC50 values were determined by fitting a sigmoidal curve to % inhibition of control versus Logo compound concentration.
Consider `c1cnc(NC2CCCN(c3nc(N4CCOCC4)cc4ncccc34)CC2)nc1` (stereo not shown) [Example 18], for which the concentration for half-maximal inhibition (IC50) – broadly, the midpoint of a concentration-inhibition curve – was 4.64 µM.

For `OCCC1CCN(c2nc(N3CCOCC3)cc3ncccc23)CC1` [Example 15], the IC50 is 2.15 µM.

`C[C@H]1CN(c2ncn[nH]2)CC[C@H]1Oc1nc(N2CCOCC2)cc2ncccc12` [Parent compound 161]: the IC50 is 2.89 µM.

As for `CNC(=O)c1ccnc(NCC2CCN(c3nc(N4CCOCC4)cc4ncccc34)CC2)n1` [Example 105], the IC50 is 1.16 µM.

Take `CN(C)C(=O)c1ccnc(NCC2CCN(c3nc(N4CCOCC4)cc4ncccc34)CC2)n1` [Example 106]: the IC50 amounted to 11.4 µM.

On to `CN(C)S(=O)(=O)n1ccnc1C1CCN(c2nc(N3CCOCC3)cc3ncccc23)CC1` [Example 14], for which the 50% inhibitory concentration (IC50) came to 4.47 µM.

Consider `Oc1cnc2cc(N3CCOCC3)nc(O[C@H]3CC[C@@H](c4ccccc4)CC3)c2c1` [Example 165], for which the IC50 amounted to 1.17 µM.

In the case of `CS(=O)(=O)N1CCN(c2nc(N3CCOCC3)cc3ncccc23)CC1` [Example 144], the IC50 turned out to be 2.89 µM.

In the case of `Cc1cc(C)nc(NCC2CCN(c3nc(N4CCOCC4)cc4ncccc34)CC2)n1` [Example 117], the 50% inhibitory concentration (IC50) was found to be 1.93 µM.

Consider `COC(=O)c1cc(N)nc(NCC2CCN(c3nc(N4CCOCC4)cc4ncccc34)CC2)n1` [Example 100], for which the IC50 turned out to be 2.36 µM.

Turning to `Cn1cnc([C@H]2CC[C@@H](Oc3nc(N4CCOCC4)cc4ncccc34)CC2)n1` [Example 72], the IC50 was found to be 0.218 µM.

Consider `NC(=O)[C@H]1CC[C@@H](COc2nc(N3CCOCC3)cc3ncccc23)CC1` [Example 6], for which the IC50 was 2.01 µM.

As to `COc1ccnc(NCC2CCN(c3nc(N4CCOCC4)cc4ncccc34)CC2)n1` [Example 111], the IC50 was determined as 2.14 µM.

As for `c1cnc(NCC2CN(c3nc(N4CCOCC4)cc4ncccc34)C2)nc1` [Parent compound 98], the IC50 worked out at 0.702 µM.

For `Cc1noc([C@H]2CC[C@@H](Oc3nc(N4CCOCC4)cc4ncccc34)CC2)n1` [Example 5], the half-maximal inhibitory concentration (IC50) was 1.37 µM.

On to `c1cnc(NCCC2CCN(c3nc(N4CCOCC4)cc4ncccc34)CC2)nc1` [Example 130], for which the IC50 was 2.53 µM.

Turning to `c1cnc(N2CCC(Oc3nc(N4CCOCC4)cc4ncccc34)CC2)nc1` [Example 127], the IC50 was 13.8 µM.

As to `c1cnc2cc(N3CCOCC3)nc(OC3CCN(c4ncn[nH]4)CC3)c2c1` [Example 155], the concentration for half-maximal inhibition (IC50) was determined as 7.86 µM.

Regarding `Cc1nnc([C@H]2CC[C@@H](Oc3nc(N4CCOCC4)cc4ncccc34)CC2)[nH]1` [Example 70], the IC50 came out at 0.113 µM.

Regarding `Cn1cc([C@H]2CC[C@@H](Oc3nc(N4CCOCC4)cc4ncc(O)cc34)CC2)cn1` [Example 166], the IC50 was determined as 0.19 µM.

Take `Fc1c[nH]c([C@H]2CC[C@@H](Oc3nc(N4CCOCC4)cc4ncccc34)CC2)n1` [Example 76]: the IC50 worked out at 0.143 µM.

Turning to `NC(=O)[C@H]1CC[C@H](COc2nc(N3CCOCC3)cc3ncccc23)CC1` [Example 57], the concentration for half-maximal inhibition (IC50) was 2.46 µM.

Take `c1cnc(NCC2CCN(c3nc(N4CCOCC4)cc4ncccc34)C2)nc1` (stereo not shown) [Example 11]: the 50% inhibitory concentration (IC50) turned out to be 3.5 µM.

Another experiment addresses DNA-PK kinase (Homo sapiens, UniProt P78527). Description: Inhibition of DNA-PK kinase activity (ADP-Glo). Particulars: averaged values over all measurements on all batches; 150 μM ATP, 1 hour at 25° C. The experiment is classed as biochemical. The method, then: Inhibition of DNA-PK Kinase Activity Assay buffer was 50 mM Hepes pH 7.5 containing 0.1 mg/ml BSA (albumin from bovine serum), 50 μM DTT (dithiothreitol), 20 mM MgCl2 and 10 μg/ml calf thymus DNA (activation buffer). Kinase reaction was carried out in OptiPlate 384 plates (PerkinElmer 6007299). All compounds tested were dissolved in dimethyl sulfoxide (DMSO) and further dilutions were made in assay buffer. Final DMSO concentration was 1% (v/v). Pre-incubation consisted of compound (1% DMSO in control and blank wells) and 24 ng/well DNA-PK kinase to allow the compounds to bind the enzyme (with buffer in the blank wells) for 15 minutes; after this time 150 μM Adenosine-5′-triphosphate (ATP) and 0.2 μg/μl DNA-PK substrate were added to commence the kinase reaction. Incubations were carried out for 1 hour at 25° C. Kinase activity was determined by using ADP-Glo™ reagent from Promega according to the manufacturer's instructions. The light generated was measured using a luminometer (EnVision, PerkinElmer). Signal obtained in the wells containing blank samples was subtracted from all other wells and IC50 values were determined by fitting a sigmoidal curve to % inhibition of control versus Log10 compound concentration.
A general note: In ADP-Glo the light output rises with the ADP produced.
`c1cnc(NC2CCCN(c3nc(N4CCOCC4)cc4ncccc34)CC2)nc1` (stereo not shown) [Example 18] registered an IC50 of 0.149 µM.

`OCCC1CCN(c2nc(N3CCOCC3)cc3ncccc23)CC1` [Example 15] showed a 50% inhibitory concentration (IC50) of 0.108 µM.

In the case of `C[C@H]1CN(c2ncn[nH]2)CC[C@H]1Oc1nc(N2CCOCC2)cc2ncccc12` [Parent compound 161], the IC50 is 0.125 µM.

For `CNC(=O)c1ccnc(NCC2CCN(c3nc(N4CCOCC4)cc4ncccc34)CC2)n1` [Example 105], 0.051 µM corresponded to half-maximal inhibition (IC50).

On to `CN(C)C(=O)c1ccnc(NCC2CCN(c3nc(N4CCOCC4)cc4ncccc34)CC2)n1` [Example 106], for which the IC50 was determined as 0.052 µM.

`CN(C)S(=O)(=O)n1ccnc1C1CCN(c2nc(N3CCOCC3)cc3ncccc23)CC1` [Example 14] registered a half-maximal inhibitory concentration (IC50) of 0.073 µM.

Compound `Oc1cnc2cc(N3CCOCC3)nc(O[C@H]3CC[C@@H](c4ccccc4)CC3)c2c1` [Example 165] showed an IC50 of 0.031 µM.

`CS(=O)(=O)N1CCN(c2nc(N3CCOCC3)cc3ncccc23)CC1` [Example 144]: the 50% inhibitory concentration (IC50) amounted to 0.117 µM.

In turn, `Cc1cc(C)nc(NCC2CCN(c3nc(N4CCOCC4)cc4ncccc34)CC2)n1` [Example 117] yielded a 50% inhibitory concentration (IC50) of 0.125 µM.

In turn, `COC(=O)c1cc(N)nc(NCC2CCN(c3nc(N4CCOCC4)cc4ncccc34)CC2)n1` [Example 100] displayed an IC50 of 0.032 µM.

Compound `Cn1cnc([C@H]2CC[C@@H](Oc3nc(N4CCOCC4)cc4ncccc34)CC2)n1` [Example 72] yielded an IC50 of 0.011 µM.

On to `NC(=O)[C@H]1CC[C@@H](COc2nc(N3CCOCC3)cc3ncccc23)CC1` [Example 6], for which the 50% inhibitory concentration (IC50) came to 0.074 µM.

Turning to `COc1ccnc(NCC2CCN(c3nc(N4CCOCC4)cc4ncccc34)CC2)n1` [Example 111], 0.088 µM corresponded to half-maximal inhibition (IC50).

As to `c1cnc(NCC2CN(c3nc(N4CCOCC4)cc4ncccc34)C2)nc1` [Parent compound 98], the IC50 came to 0.036 µM.

As for `Cc1noc([C@H]2CC[C@@H](Oc3nc(N4CCOCC4)cc4ncccc34)CC2)n1` [Example 5], the midpoint of inhibition, the IC50, lay at 0.021 µM.

With `c1cnc(NCCC2CCN(c3nc(N4CCOCC4)cc4ncccc34)CC2)nc1` [Example 130], the half-maximal inhibitory concentration (IC50) stood at 0.048 µM.

In turn, `c1cnc(N2CCC(Oc3nc(N4CCOCC4)cc4ncccc34)CC2)nc1` [Example 127] had an IC50 of 0.203 µM.

In turn, `c1cnc2cc(N3CCOCC3)nc(OC3CCN(c4ncn[nH]4)CC3)c2c1` [Example 155] registered a concentration for half-maximal inhibition (IC50) of 0.134 µM.

On to `Cc1nnc([C@H]2CC[C@@H](Oc3nc(N4CCOCC4)cc4ncccc34)CC2)[nH]1` [Example 70], for which the half-maximal inhibitory concentration (IC50) was 0.001 µM.

Turning to `Cn1cc([C@H]2CC[C@@H](Oc3nc(N4CCOCC4)cc4ncc(O)cc34)CC2)cn1` [Example 166], the IC50 was found to be 0.004 µM.

In turn, `Fc1c[nH]c([C@H]2CC[C@@H](Oc3nc(N4CCOCC4)cc4ncccc34)CC2)n1` [Example 76] showed an IC50 of 0.011 µM.

For the compound `NC(=O)[C@H]1CC[C@H](COc2nc(N3CCOCC3)cc3ncccc23)CC1` [Example 57], half-maximal inhibition (IC50) required 0.12 µM.

Compound `c1cnc(NCC2CCN(c3nc(N4CCOCC4)cc4ncccc34)C2)nc1` (stereo not shown) [Example 11] yielded an IC50 of 0.05 µM.
